{"source": "patent US20260048130A1", "about": "“ALPHA-V BETA-6 (avb6) INTEGRIN LIGANDS FOR EXTRAHEPATIC DELIVERY” (Alnylam Pharmaceuticals, Inc., priority 2022, published 2026)", "key": {"Sod1 mRNA": {"system": "Sod1 mRNA", "experiment": "Sod1 mRNA knockdown in mouse lung after intranasal administration (RT-qPCR)", "type": "in vivo", "details": "for % Sod1 Remaining: Day 10, relative to PBS", "protocol": "Heart and quadricep powder were homogenized and lysed in 750 μL of QIAzol Lysis Reagent for 5 minutes×2 at 25 Hz using a TissueLyser. Chloroform ([…]) was thoroughly mixed with each sample and lysates were centrifugated at full speed for 15 minutes at 4° C. Total RNA was isolated from the supernatant using the RNeasy® 96 Universal Tissue Kit. Resulting RNA (1500 ng) was used for cDNA synthesis using the Applied Biosystems™ High-Capacity cDNA Reverse Transcription Kit with RNase Inhibitor. For qPCR reactions, 2 uL cDNA was used per 10 μL reaction. RT-qPCR was performed using the LightCycler® 480 Probes Master in the LightCycler® 480 Instrument system using gene specific TaqMan assays for each target mouse-specific Sod1 (ThermoFisher Scientific, Mm01344233_g1) and Gapdh (ThermoFisher Scientific, Mm99999915_g1) were used for RT-qPCR analysis. Each sample was analyzed in duplicate by RT-qPCR. Data were analyzed using the ΔΔCt method normalizing to control animals treated with 1×PBS alone.\nTable 5 provides the study design used to evaluate the in vivo pharmacodynamic and/or pharmacologic activity of αvβ6 integrin targeting siRNA conjugates in mouse lung following intranasal administration.\nFemale mice were intranasally administered either a single 1 mg/kg or 10 mg/kg dose of the dsRNA agents conjugated to αvβ6 and at Day 10 post-dose animals were sacrificed and lung, heart, liver, and kidney tissues were collected. The level of Sod1 mRNA in the samples was determined by R^T-qPCR as described above."}, "recombinant human αvβ6": {"biological_target": "T1, recombinant human αvβ6 (Homo sapiens, UniProt P06756+P18564, DEL708-788)", "T1 construct": "purchased R&D Systems 3817AV050", "T1 sequence (P06756 31-992 limits assumed, stated change not applied)": "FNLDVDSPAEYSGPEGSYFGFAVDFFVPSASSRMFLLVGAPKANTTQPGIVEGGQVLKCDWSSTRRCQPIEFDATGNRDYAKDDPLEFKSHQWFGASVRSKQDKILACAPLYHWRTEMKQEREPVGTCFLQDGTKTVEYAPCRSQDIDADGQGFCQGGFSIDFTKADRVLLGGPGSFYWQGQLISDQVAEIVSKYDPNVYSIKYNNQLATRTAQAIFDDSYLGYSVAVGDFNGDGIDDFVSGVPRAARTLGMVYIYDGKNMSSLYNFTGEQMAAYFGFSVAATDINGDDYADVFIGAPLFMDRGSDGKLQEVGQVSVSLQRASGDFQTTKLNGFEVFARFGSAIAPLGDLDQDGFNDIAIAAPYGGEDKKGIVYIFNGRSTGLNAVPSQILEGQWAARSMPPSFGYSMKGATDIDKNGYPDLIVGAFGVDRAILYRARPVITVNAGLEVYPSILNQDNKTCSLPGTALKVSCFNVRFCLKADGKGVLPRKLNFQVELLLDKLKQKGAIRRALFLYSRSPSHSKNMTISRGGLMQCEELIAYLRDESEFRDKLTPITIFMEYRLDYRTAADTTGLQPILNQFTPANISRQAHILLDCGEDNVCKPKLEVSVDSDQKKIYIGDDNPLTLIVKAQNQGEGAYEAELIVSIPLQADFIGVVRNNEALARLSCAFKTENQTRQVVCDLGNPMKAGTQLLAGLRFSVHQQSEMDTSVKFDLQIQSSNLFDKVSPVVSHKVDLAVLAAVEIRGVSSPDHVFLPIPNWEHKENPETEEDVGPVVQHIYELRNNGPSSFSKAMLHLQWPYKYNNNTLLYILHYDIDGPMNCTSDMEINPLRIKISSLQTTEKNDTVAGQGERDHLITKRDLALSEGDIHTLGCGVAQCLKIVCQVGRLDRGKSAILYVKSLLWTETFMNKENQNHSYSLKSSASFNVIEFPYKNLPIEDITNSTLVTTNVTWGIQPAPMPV", "T1 sequence (P18564 22-707 limits assumed, stated change not applied)": "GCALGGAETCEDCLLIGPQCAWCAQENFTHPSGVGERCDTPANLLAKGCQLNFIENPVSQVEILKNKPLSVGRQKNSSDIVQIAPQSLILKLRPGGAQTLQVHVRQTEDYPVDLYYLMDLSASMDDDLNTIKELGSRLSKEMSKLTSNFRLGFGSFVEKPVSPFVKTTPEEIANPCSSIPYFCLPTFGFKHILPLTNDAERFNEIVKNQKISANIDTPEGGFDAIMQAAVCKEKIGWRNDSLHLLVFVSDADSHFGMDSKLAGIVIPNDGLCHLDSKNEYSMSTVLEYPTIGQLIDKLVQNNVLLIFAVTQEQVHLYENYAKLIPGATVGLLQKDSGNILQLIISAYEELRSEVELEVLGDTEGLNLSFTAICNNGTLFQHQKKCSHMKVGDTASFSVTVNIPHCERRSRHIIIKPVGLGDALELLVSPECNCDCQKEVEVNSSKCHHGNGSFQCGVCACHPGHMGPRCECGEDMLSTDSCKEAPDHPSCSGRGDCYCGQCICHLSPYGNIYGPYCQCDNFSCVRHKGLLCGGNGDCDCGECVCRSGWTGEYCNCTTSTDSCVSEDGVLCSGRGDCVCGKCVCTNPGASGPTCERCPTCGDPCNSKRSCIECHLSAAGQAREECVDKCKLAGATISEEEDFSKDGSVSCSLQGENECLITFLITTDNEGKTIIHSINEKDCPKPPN", "experiment": "ELISA displacement assay (αvβ6 binding to LAP/TGF1b)", "details": "recombinant human αvβ6 vs coated human LAP/TGF1b", "protocol": "ELISA plates were coated with 0.6 ug/mL recombinant human LAP/TGF1b (R&D Systems 246LP025) in carbonate buffer (pH 9.6) overnight at 4 C. Plates were washed with PBST and blocked for 1 hour at room temperature with assay buffer (20 mM Tris-HCl, 150 mM NaCl, 2 mM CaCl2, 2 mM MgCl2, 2 mM MnCl2, 0.5% BSA, pH 7.4). Serial dilutions of competitor compound in assay buffer were added to plate, as well as 1.0 ug/mL of purified recombinant human αvβ6 (R&D Systems 3817AV050), and samples were incubated for 1 hour at room temperature. Plates were washed with PBS-T, then incubated with 2.5 ug/mL of anti-integrin av primary antibody (Sigma MAB1978) for 1 hour at room temperature. Plates were washed with PBS-T, then incubated with 2.0 ug/mL of HRP-conjugated secondary antibody for 1 hour at room temperature. Samples were incubated with TMB substrate (Thermo 34024) for 15 minutes, reaction was quenched with 3 M sulfuric acid, and absorbance was measured at 450 nm. Percent binding inhibition was calculated by normalizing to a maximum value obtained from no-competitor samples and a minimum value obtained from no-competitor-no-integrin samples. EC50 values are reported in the following ranges: “A” EC50>100 nM; “B” EC50 10-100 nM; “C” EC50<10 nM."}}, "note": "In the oligonucleotide strings, read from the 5' end, every base follows the letter of its sugar. An asterisk marks phosphorothioate; unmarked linkages are phosphodiester. Other units and linkages are bracketed, terminal groups are in braces. A string of capitals states the bases alone. {Q410} = αvβ6 integrin ligand conjugate, (S,R) stereochemistry, phosphorothioate-linked; {Q411} = αvβ6 integrin ligand conjugate, (R,R) stereochemistry variant; {L352} = αvβ6 integrin ligand conjugate, (S,R) stereochemistry; {L353} = αvβ6 integrin ligand conjugate, (S,S) stereochemistry; {L373Z511} = αvβ6 integrin ligand conjugate variant; {L373Z512} = αvβ6 integrin ligand conjugate variant; {L373Z513} = αvβ6 integrin ligand conjugate variant; {L354} = αvβ6 integrin ligand conjugate; {VP} = (E)-vinylphosphonate; m = 2'-O-methyl; f = 2'-fluoro"}
{"substance": "AD-1481899.1: \"3′,5′ is better than the triple (AD-1481899 vs AD-1481901 as matched pair of (S,R) stereochemistry)\" (sense mC*mA*mUmUmUmUfAmAfUfCfCmUmCmAmCmUmCmUmAmA*mA*{L354}; antisense {VP}-mU*fU*mUmAmGfAmGfUfGmAmGmGmAfUmUfAmAmAmAmUmG*mA*mG; siRNA)", "values": [{"measurement": "% Sod1 Remaining", "setting": "Sod1 mRNA; single intranasal 1 mg/kg", "result": 60.0, "unit": "%"}, {"measurement": "% Sod1 Remaining", "setting": "Sod1 mRNA; single intranasal 10 mg/kg", "result": 52.4, "unit": "%"}]}
{"substance": "AD-1481901.1: \"3′,5′ is better than the triple (AD-1481899 vs AD-1481901 as matched pair of (S,R) stereochemistry)\" (sense {Q410}*mC*mAmUmUmUmUfAmAfUfCfCmUmCmAmCmUmCmUmAmA*mA*{L352}; antisense {VP}-mU*fU*mUmAmGfAmGfUfGmAmGmGmAfUmUfAmAmAmAmUmG*mA*mG; siRNA)", "values": [{"measurement": "% Sod1 Remaining", "setting": "Sod1 mRNA; single intranasal 1 mg/kg", "result": 47.7, "unit": "%"}, {"measurement": "% Sod1 Remaining", "setting": "Sod1 mRNA; single intranasal 10 mg/kg", "result": 35.9, "unit": "%"}]}
{"substance": "AD-1481901: \"inhibition of Sod1 mRNA expression in mouse quadriceps, heart, liver, and lung 21 days after a single 2 mg/kg intravenous dose\" (sense {Q410}*mC*mAmUmUmUmUfAmAfUfCfCmUmCmAmCmUmCmUmAmA*mA*{L352}; antisense {VP}-mU*fU*mUmAmGfAmGfUfGmAmGmGmAfUmUfAmAmAmAmUmG*mA*mG)", "values": [{"measurement": "Sod1 knockdown in mouse lung, comparison between conjugate designs", "setting": "Sod1 mRNA; intranasal, matched pairs by avidity or stereochemistry", "result": "better than the triple"}]}
{"substance": "AD-1481902.1: \"inhibition of Sod1 mRNA expression in mouse quadriceps, heart, liver, and lung 21 days after a single 2 mg/kg intravenous dose\" (sense {Q411}*mC*mAmUmUmUmUfAmAfUfCfCmUmCmAmCmUmCmUmAmA*mA*{L353}; antisense {VP}-mU*fU*mUmAmGfAmGfUfGmAmGmGmAfUmUfAmAmAmAmUmG*mA*mG)", "values": [{"measurement": "% Sod1 Remaining", "setting": "Sod1 mRNA; single intranasal 1 mg/kg", "result": 77.2, "unit": "%"}, {"measurement": "% Sod1 Remaining", "setting": "Sod1 mRNA; single intranasal 10 mg/kg", "result": 51.2, "unit": "%"}]}
{"substance": "AD-1481904.1: dsRNA agent targeting Sod1 conjugated to αvβ6 ligand: \"3′-monos (AD-1481903 (S,R) vs AD-1481904 (S,S))\" (sense mC*mA*mUmUmUmUfAmAfUfCfCmUmCmAmCmUmCmUmAmA*mA*{L353}; antisense {VP}-mU*fU*mUmAmGfAmGfUfGmAmGmGmAfUmUfAmAmAmAmUmG*mA*mG)", "values": [{"measurement": "% Sod1 Remaining", "setting": "Sod1 mRNA; single intranasal 1 mg/kg", "result": 59.2, "unit": "%"}, {"measurement": "% Sod1 Remaining", "setting": "Sod1 mRNA; single intranasal 10 mg/kg", "result": 49.8, "unit": "%"}]}
{"substance": "AD-2032892: \"inhibition of Sod1 mRNA expression in mouse gastrocnemius and quadriceps 21 days after a single 2 mg/kg intravenous dose of AD-2032892\" (sense mU*mU*mGmGmGmCfAmAfAfGfGmUmGmGmAmAmAmUmGmA*mA*{L354}; antisense {VP}-mU*fU*mCmAmUfUmUfCfCmAmCmCmUfUmUfGmCmCmCmAmA*mG*mU)", "values": [{"measurement": "EC50", "setting": "recombinant human αvβ6", "result": "< 10", "unit": "nM"}]}
{"substance": "AD-2639645 (sense mU*mU*mGmGmGmCfAmAfAfGfGmUmGmGmAmAmAmUmGmA*mA*{L373Z511}; antisense {VP}-mU*fU*mCmAmUfUmUfCfCmAmCmCmUfUmUfGmCmCmCmAmA*mG*mU; siRNA)", "values": [{"measurement": "EC50", "setting": "recombinant human αvβ6", "result": "> 100", "unit": "nM"}]}
{"substance": "AD-2639646 (sense mU*mU*mGmGmGmCfAmAfAfGfGmUmGmGmAmAmAmUmGmA*mA*{L373Z512}; antisense {VP}-mU*fU*mCmAmUfUmUfCfCmAmCmCmUfUmUfGmCmCmCmAmA*mG*mU; siRNA)", "values": [{"measurement": "EC50", "setting": "recombinant human αvβ6", "result": "10 to 100", "unit": "nM"}]}
{"substance": "AD-2639647 (sense mU*mU*mGmGmGmCfAmAfAfGfGmUmGmGmAmAmAmUmGmA*mA*{L373Z513}; antisense {VP}-mU*fU*mCmAmUfUmUfCfCmAmCmCmUfUmUfGmCmCmCmAmA*mG*mU; siRNA)", "values": [{"measurement": "EC50", "setting": "recombinant human αvβ6", "result": "< 10", "unit": "nM"}]}
